Assay results from US12203060B1, “Cell culture” (FIBROFIND IP LIMITED, priority 2015, dated 2025).

Assays:
[1] = system: precision cut liver slices (PCLS); test: Expression of fibrosis genes in precision cut liver slices cultured on CMR2; format: cell-based; conditions: for expression of fibrosis genes (pro-collagen 1, aSMA, TIMP1): PCLS on CMR2, stimulated for 72 h after a 24 h rest period, FIG. 31
Description: (§1) Liver tissue was placed in a 10 cm dish containing Hanks Buffered Saline Solution (HBSS+, Lonza, BE10-508F). Four to eight mm cores of liver tissue were made using a Stiefel Biopsy Punch. Cores were then transferred to a metal mould and submerged in 2.5-3.0% low gelling temperature agarose (Sigma, A9414) and then placed on ice for 2-5 minutes.
(§2) Once set, the cores in agarose were super-glued to a vibratome mounting stage and submersed in the media chamber in ice cold HBSS+prior to cutting on a Leica VT1200 S fully automated vibrating blade microtome. Liver tissue cores were cut at a speed of 0.3 mm/see, and an amplitude 2 mm and thickness (step size) of 250 μm. Slices having a thickness of between 200-400 μm can be used.
Slices were transferred to 3 μm, 8 μm or 100 μm pore inserts provided in static (Griener) or CMR tissue culture plates. The CMR tissue culture plates of embodiments of the invention comprised either holes between adjacent wells or were rapid prototyped from CAD design to comprise slots between wells. The wells contained slice culture media. The slices were cultured under static, unidirectional or rocked conditions at 37° C. in 5% carbon dioxide in a humidified tissue culture incubator. Twelve or twenty-four well CMR tissue culture plates were used, as indicated.
The slice culture media comprised the following components: • Williams Medium E (Sigma, W4128) • 2% Heat Inactivated Fetal Bovine Serum (Gibco) • Penicillin-Streptomycin (Sigma, P0781) • L-glutamine (Sigma, G7513) • Pyruvate (Sigma, S8636) • 0.5 uM Insulin/transferrin selenium mix (Gibco 51500-056) • 0.1 uM dexamethasone (Sigma, D4902) Urea Assay (Universal Biologicals Cambridge)

[2] = system: precision cut liver slices (PCLS); test: Albumin production by precision cut liver slices cultured on CMR2 (albumin ELISA); format: cell-based; conditions: PCLS on CMR2, fat, fat+LPS or BSA vehicle for 48 h after a 24 h rest period; FIG. 27
Description: as §1, §2
Slices were transferred to 3 μm, 8 μm or 100 μm pore inserts provided in static (Griener) or CMR tissue culture plates. […]
100 μl of the slice culture media diluted 1:250 was removed from wells comprising slices in either a static culture plate, a unidirectional system or the CMR culture plate apparatus which was rocked using a rocking apparatus as described herein. The media was used to quantify albumin release using the Rat Albumin ELISA Quantitation Set (catalogue number E110-125) or Human Albumin ELISA Quantitation Set (catalogue number E80-129) following manufacturer's instructions.

[3] = PCLS on CMR2, 3 ng/ml TGFb1 for 48 h, compared to control (untreated), FIG. 26B

transforming growth factor beta [TGFb]
expression of fibrosis genes (pro-collagen 1, aSMA, TIMP1) [1]: induce expression

Lipopolysaccharide [LPS]
albumin production [2]: did not affect

transforming growth factor beta 1 [TGFb1]
expression of the fibrosis gene alpha-smooth muscle actin (aSMA) [1, 3]: induced expression | expression of the fibrosis gene collagen I [1, 3]: induced expression | expression of the fibrosis gene tissue inhibitor of metalloprotease 1 (TIMP1) [1, 3]: induced expression

B1: platelet derived growth factor b (protein, UniProt P01127 82-190, looked up)
Platelet-derived growth …: SLGSLTIAEPAMIAECKTRTEVFEISRRLIDRTNANFLVWPPCVEVQRCSGCCNNRNVQCRPTQVQLRPVQVRKIEIVRKKPIFKKATVTLEDHLACKCETVAAARPVT
modifications: homodimer
notes: fibrosis-stimulating factor added to liver slices
expression of fibrosis genes (pro-collagen 1, aSMA, TIMP1) [1]: induce expression
